In patent US20260069656A1, “Nutritive Polypeptides and Formulations Thereof, and Methods of Production and Use Thereof” (Axcella Health Inc., priority 2013, published 2026):

Columns and labels:
[1] = Thermostability, ProteoStat Thermal Shift Stability Kit, temperature of aggregation; format: physicochemical; settings: pH 7.1; heated from 25° C. to 95° C.
Description: Thermostability. The thermostability of proteins in a buffer cocktail of Citric Acid and Dibasic Sodium Phosphate over a pH range of 2.8 to 7.1 (preparation described above in Table E31B) was determined using the ProteoStat® Thermal Shift Stability Kit (Enzo Life Sciences) according to the manufacturer's standard protocol. Briefly, protein solutions (˜10 mg/ml) containing 1× ProteoStat TS Detection Reagent were heated from 25° C. to 95° C. at a rate of 0.5° C. per 30 sec using a real-time PCR (rtPCR) thermocycler (BioRad) equipped with a plate reader (SynergyMx, Biotek) while monitoring the fluorescence with a Texas Red filter.

[2] = Solubility of proteins (lyophilized/reconstituted or ultrafiltered); settings: produced in E. coli unless otherwise noted
[3] = test system: GLP-2; test: Total GLP-2 ELISA, plasma GLP-2 in healthy fasted rats; format: in vivo, rat
Description: Animals were treated and acutely dosed with test articles as part of pharmacokinetic rodent experiments according to methods described herein. In this experiment, two test articles were analyzed, vehicle and a nutritive formulation of SEQID-240, dosed at 1.54 g/kg.
Total GLP-2 was measured with Millipore Total GLP-2 ELISA Kit (Millipore, EZGLP2-37K). The ELISA kit was equilibrated to room temperature for a minimum of 30 minutes prior to running the assay. The kit GLP-2 Standard, Quality Control 1 and Quality Control 2 were reconstituted with 500 μL MilliQ water, inverted 5 times and incubated at room temperature for 5 minutes, then gently vortexed to mix. The standard curve was prepared by diluting the GLP-2 Standard serially 1:1 in kit Assay Buffer to generate an eight point standard curve including 0 ng/mL GLP-2. Plasma samples were thawed on ice and centrifuged for 10 minutes at approximately 1109× rcf to pellet insoluble material. Fasted plasma matrix from untreated, fasted rat was prepared for running the standard and quality controls in duplicate at 20% (2×).
1× Wash Buffer was prepared in a clean 500 mL glass bottle by combining 50 mL 10× Wash Buffer with 450 mL MilliQ water. Strips were prepared by washing 3 times with 300 μL 1× Wash Buffer applied with a 30-300 μL 8-channel pipette. Between washes the wash buffer was decanted into a waste receptacle and the plate tapped sharply on a stack of paper towels to remove remaining wash buffer.
Following the first wash, 90 μL of Assay Buffer was added to sample wells, and 50 μL of 20% matrix in Assay Buffer was added to all standard and quality control wells. 10 μL of sample was added to each sample well and 50 μL of standard and quality control were added to matrix containing wells. Samples, standards and quality control wells were run in duplicate, except for 0 ng/mL GLP-2 standard which was run in quadruplicate.
The plate was sealed with a plastic plate seal and incubated at room temperature on a horizontal plate shaker at 450 rpm for 2 hours. Following the first incubation, the plate was washed three times with 1× Wash Buffer, decanting into a waste receptacle and tapping the inverted plate sharply on a stack of paper towels to remove excess wash buffer after each wash.
100 μL of Detection Antibody was added to each well and the plate was sealed with a plastic plate seal and incubated at room temperature on a horizontal plate shaker at 450 rpm for 1 hour. […]
Absorbance was measured on a SynergyMX Plate Reader at 450 nm and 590 nm. Measured values were the difference between 450 nm and 590 nm absorbance values.
Data were analyzed with GraphPad Prism 6.03. […]

## SEQID-00240: nutritive polypeptide naturally produced in Cow, recombinantly expressed in E. coli (DLEGSLEQEKKLRMDLERAKRKLEGDLKLAQESTMDIENDKQQLDEKLKK; listed as Bos taurus)
[1]
  Tagg (pH 7.1): >95
[2]
  Solubility: 163 mg/mL
[3]; 0-60 minutes, P<0.005
  GLP-2 area under curve vs vehicle: significantly greater in the SEQID-00240 treatment compared to vehicle
[3]; 0-240 minutes, P<0.01
  GLP-2 area under curve vs vehicle: significantly greater in the SEQID-00240 treatment compared to vehicle
[3]; 1.54 g/kg, at 15, 30, 60 and 120 minutes following treatment
  total GLP-2 concentration vs vehicle: statistically significantly greater than vehicle
[3]; 1.54 g/kg, at 15, 30 and 60 minutes following gavage
  total GLP-2 concentration relative to time 0: statistically significant increase in GLP-2 concentration relative to time 0
